Reference: PMC3639647, “Cloning, Expression, and Purification of Nucleoside Diphosphate Kinase from Acinetobacter baumannii” (Enzyme Research, 2013)

Target: T1, Ndk (nucleoside diphosphate kinase) (Acinetobacter baumannii, UniProt B0VKS3)
T1 construct: E. coli BL21(DE3), Ni-NTA
T1 sequence (B0VKS3 1-143): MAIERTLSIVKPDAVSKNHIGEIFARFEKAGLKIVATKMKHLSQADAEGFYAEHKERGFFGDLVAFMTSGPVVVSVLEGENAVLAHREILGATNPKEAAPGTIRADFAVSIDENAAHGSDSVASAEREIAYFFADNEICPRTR
Assay: intrinsic tryptophan/tyrosine fluorescence quenching titration (excitation […] nm)
Format: binding
Details: pH 7 (neutral), 25 °C, 17 µM protein, ATP 20-100 µM

Nc1ncnc2c1ncn2[C@@H]1O[C@H](COP(=O)(O)OP(=O)(O)OP(=O)(O)O)[C@@H](O)[C@H]1O [ATP]
intrinsic tryptophan/tyrosine fluorescence quenching titration (excitation 280 n): Binding of the substrate ATP with the enzyme was confirmed by the quenching of fluorescence
